Data set [1] deals with T1, Human serotonin 5-HT6 receptor (Homo sapiens, UniProt P50406).
T1 construct: made in house; host or cells: insect Sf21 cells (baculovirus vector BacPAK8)
The data set is described as follows: [3H]LSD binding assay on cloned 5-HT6 receptor membranes.

In data set [2] the target is T2, 5-HT7 (Homo sapiens, UniProt P34969).
T2 construct: purchased Euroscreen/BioSignal Packard Inc
The data set is described as follows: Radioligand binding, 5-HT7 ([3H]LSD). As to conditions: Table 4; [3H]LSD 3 nM; read-out: Binding affinity, IC50 (nM) 5-HT7.

The target in data set [3] is T3, 5-HT1a (Homo sapiens, UniProt P08908).
T3 construct: purchased Euroscreen/BioSignal Packard Inc
T3 sequence (P08908 1-422): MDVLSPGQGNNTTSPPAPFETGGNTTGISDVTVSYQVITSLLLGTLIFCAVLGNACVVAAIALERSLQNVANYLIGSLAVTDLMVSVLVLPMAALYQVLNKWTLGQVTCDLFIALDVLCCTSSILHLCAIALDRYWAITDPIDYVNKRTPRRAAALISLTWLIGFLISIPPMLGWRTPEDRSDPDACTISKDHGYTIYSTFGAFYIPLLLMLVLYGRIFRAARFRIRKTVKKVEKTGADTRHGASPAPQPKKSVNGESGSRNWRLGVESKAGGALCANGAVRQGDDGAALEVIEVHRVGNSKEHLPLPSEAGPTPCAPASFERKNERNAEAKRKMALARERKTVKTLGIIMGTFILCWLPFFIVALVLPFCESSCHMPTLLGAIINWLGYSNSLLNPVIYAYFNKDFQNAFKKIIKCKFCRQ
The data set is described as follows: Radioligand binding, 5-HT1a ([3H]8-OH-DPAT). As to conditions: Table 4; [3H]8-OH-DPAT 0.5 nM; read-out: Binding affinity, IC50 (nM) 5-HT1a. The protocol: Radioligand bindings were performed according to the test method provided by the supplier of receptor membrane (Euroscreen/BioSignal Packard Inc.). The detailed assay conditions and the results were shown in the following Table 3 and Table 4, respectively.

Data set [4] concerns the target T4, 5-HT2a (Homo sapiens, UniProt P28223).
T4 construct: purchased Euroscreen/BioSignal Packard Inc
Kind of data set: Radioligand binding, 5-HT2a ([3H]Ketanserin). As to conditions: Table 4; [3H]Ketanserin 1 nM; read-out: Binding affinity, IC50 (nM) 5-HT2a.

Data set [5] deals with T5, 5-HT2c (Homo sapiens, UniProt P28335).
T5 construct: purchased Euroscreen/BioSignal Packard Inc
T5 sequence (P28335 33-458): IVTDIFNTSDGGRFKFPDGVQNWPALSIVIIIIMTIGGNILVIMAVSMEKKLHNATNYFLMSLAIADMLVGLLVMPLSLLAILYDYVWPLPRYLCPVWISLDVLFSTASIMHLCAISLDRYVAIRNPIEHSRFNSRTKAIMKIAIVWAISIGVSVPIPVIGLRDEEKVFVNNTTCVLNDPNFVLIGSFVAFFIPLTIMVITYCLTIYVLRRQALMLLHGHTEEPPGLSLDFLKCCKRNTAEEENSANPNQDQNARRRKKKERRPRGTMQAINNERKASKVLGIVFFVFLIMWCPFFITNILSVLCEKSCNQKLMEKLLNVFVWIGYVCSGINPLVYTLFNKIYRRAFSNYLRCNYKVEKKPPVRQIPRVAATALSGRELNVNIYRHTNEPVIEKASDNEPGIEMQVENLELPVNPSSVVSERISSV
The data set is described as follows: Radioligand binding, 5-HT2c ([3H]Mesulergine). As to conditions: Table 4; [3H]Mesulergine 1 nM; read-out: Binding affinity, IC50 (nM) 5-HT2c.

Data set [6] has as its target D1 (Homo sapiens, UniProt P21728). Kind of data set: Radioligand binding, dopamine D1. As to conditions: Table 4; read-out: Binding affinity, IC50 (nM) D1.
In data set [7] the target is T6, hD2L (Homo sapiens, UniProt P14416).
T6 construct: purchased BioSignal Packard Inc., Montreal, Canada
T6 sequence (P14416 whole entry): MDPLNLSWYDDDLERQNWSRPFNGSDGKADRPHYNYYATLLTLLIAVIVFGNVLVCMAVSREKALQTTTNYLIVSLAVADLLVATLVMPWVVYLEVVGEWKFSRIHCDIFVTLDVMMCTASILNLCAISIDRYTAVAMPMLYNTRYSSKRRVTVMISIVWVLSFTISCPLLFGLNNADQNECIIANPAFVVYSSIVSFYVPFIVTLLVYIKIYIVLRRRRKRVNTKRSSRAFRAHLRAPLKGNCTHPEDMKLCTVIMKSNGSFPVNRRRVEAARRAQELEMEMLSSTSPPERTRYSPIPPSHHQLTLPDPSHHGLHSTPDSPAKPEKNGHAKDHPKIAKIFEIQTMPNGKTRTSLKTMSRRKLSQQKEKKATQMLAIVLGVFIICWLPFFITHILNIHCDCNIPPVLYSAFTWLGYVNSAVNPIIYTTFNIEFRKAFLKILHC
Kind of data set: Radioligand binding, dopamine D2 ([3H]spiperone). The settings on record: Table 4; [3H]spiperone 1 nM; read-out: Binding affinity, IC50 (nM) D2. The protocol:
(§1) 2-2: Binding assays of Dopamine Receptor Family
(§2) The radioligands used were [^3H] spiperone (for hD2L and hD3 receptors, 1 nM) and [^3H] YM-09151-2 (for hD4.2 receptor, 0.06 nM). Radioligand bindings were performed by the protocols provided by the supplier of receptor membranes (BioSignal Packard Inc., Montreal, Canada). Briefly, the buffer used in D2 or D3 receptor binding assay was 50 mM Tris-HCl (pH 7.4), 10 mM MgCl2, 1 mM EDTA, or 50 mM Tris-HCl (pH 7.4), 5 mM MgCl2, 5 mM EDTA, 5 mM KCl, 1.5 mM CaCl2, 120 mM NaCl, respectively. In [^3H] YM-09151-2 receptor binding assays, the buffer containing 50 mM Tris-HCl (pH 7.4), 5 mM MgCl2, 5 mM EDTA, 5 mM KCl and 1.5 mM CaCl2 was used. […] Competition binding studies were carried out with 7-8 concentrations of the test compound run in duplicate tubes, and isotherms from three assays were calculated by computerized nonlinear regression analysis (GraphPad Prism Program, San Diego, […]) to yield median inhibitory concentration (IC50) values.

Data set [8] concerns the target T7, hD3 (Homo sapiens, UniProt P35462).
T7 construct: purchased BioSignal Packard Inc., Montreal, Canada
The data set is described as follows: Radioligand binding, dopamine D3 ([3H]spiperone). The settings on record: Table 4; [3H]spiperone 1 nM; read-out: Binding affinity, IC50 (nM) D3. The procedure: as §1, §2

For data set [9], the target named is T8, hD4.2 receptor (Homo sapiens, UniProt P21917, DEL265-296).
T8 construct: purchased BioSignal Packard Inc., Montreal, Canada
T8 sequence (P21917 with tags, fused parts or gaps DEL265-296): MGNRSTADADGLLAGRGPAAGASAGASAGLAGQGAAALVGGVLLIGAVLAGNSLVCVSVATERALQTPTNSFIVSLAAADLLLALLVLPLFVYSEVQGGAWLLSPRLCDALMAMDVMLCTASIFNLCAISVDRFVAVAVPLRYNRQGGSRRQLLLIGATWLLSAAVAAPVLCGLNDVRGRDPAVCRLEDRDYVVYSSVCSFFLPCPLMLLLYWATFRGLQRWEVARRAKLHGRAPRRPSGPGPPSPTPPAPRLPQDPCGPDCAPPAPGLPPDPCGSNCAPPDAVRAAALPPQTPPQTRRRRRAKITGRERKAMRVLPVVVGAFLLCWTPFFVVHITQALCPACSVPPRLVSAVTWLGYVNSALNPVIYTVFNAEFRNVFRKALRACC
Kind of data set: Radioligand binding, dopamine D4 ([3H]YM-09151-2). The settings on record: Table 4; [3H]YM-09151-2 0.06 nM; read-out: Binding affinity, IC50 (nM) D4. The procedure:
as §1, §2

Setting [10] is: Table 2, 1.87 nM [3H]LSD, 37 C, 60 min, read-out: IC50 (nM), binding affinity to the 5-HT6 receptor.
Setting [11] is: Table 4, read-out: Binding affinity, IC50 (nM) 5-HT6.

Like-named read-outs stand apart in the source and are kept apart here.

T2 sequence (P34969 whole entry): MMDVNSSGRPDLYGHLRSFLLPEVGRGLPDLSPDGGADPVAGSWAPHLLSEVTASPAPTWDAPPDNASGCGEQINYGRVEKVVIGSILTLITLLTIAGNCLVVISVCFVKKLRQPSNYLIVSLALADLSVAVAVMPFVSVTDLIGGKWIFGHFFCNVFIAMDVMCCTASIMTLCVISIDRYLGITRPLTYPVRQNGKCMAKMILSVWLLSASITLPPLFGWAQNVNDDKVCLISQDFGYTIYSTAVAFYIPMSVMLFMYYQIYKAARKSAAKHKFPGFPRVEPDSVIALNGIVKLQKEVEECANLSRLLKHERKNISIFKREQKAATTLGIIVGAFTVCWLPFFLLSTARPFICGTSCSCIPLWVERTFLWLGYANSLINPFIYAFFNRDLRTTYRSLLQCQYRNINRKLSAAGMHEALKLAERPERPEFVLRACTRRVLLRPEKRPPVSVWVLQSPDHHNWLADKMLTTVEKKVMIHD
T4 sequence (P28223 whole entry): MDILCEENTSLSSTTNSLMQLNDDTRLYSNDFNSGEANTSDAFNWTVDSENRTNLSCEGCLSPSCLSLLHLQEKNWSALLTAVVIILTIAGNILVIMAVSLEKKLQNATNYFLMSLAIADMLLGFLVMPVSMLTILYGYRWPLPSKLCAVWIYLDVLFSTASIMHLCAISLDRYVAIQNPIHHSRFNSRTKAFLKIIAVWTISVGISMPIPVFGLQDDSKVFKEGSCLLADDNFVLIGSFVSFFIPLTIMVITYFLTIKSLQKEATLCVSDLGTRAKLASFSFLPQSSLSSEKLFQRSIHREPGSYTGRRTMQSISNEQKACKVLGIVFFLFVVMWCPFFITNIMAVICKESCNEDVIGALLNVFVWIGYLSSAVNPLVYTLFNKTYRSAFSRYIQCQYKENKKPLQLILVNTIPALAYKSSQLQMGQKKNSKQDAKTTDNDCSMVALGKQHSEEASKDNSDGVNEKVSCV
Chain of D1 (P21728 whole entry): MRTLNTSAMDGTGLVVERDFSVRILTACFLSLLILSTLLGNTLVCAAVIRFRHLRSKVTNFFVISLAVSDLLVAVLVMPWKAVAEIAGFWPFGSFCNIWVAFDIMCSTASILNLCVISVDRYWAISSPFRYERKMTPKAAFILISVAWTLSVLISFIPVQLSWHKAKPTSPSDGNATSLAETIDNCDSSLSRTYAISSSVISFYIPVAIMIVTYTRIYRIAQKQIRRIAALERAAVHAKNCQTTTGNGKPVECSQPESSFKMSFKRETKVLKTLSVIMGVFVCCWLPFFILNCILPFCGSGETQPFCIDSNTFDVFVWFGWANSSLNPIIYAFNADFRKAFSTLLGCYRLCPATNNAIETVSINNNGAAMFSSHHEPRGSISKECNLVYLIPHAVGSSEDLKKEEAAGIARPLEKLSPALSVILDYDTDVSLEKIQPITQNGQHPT
T7 sequence (P35462 whole entry): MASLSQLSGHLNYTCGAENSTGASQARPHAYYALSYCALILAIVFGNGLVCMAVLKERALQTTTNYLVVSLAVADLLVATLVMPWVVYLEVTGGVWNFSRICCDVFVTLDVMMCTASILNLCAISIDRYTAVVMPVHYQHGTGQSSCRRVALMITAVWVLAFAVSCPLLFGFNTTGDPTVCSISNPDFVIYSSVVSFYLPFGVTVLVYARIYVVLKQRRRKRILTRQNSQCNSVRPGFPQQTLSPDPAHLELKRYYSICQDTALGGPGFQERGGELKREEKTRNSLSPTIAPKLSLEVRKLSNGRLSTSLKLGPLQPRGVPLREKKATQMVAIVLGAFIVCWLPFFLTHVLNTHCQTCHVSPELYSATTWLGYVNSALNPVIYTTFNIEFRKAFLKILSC
T1 sequence (P50406 whole entry): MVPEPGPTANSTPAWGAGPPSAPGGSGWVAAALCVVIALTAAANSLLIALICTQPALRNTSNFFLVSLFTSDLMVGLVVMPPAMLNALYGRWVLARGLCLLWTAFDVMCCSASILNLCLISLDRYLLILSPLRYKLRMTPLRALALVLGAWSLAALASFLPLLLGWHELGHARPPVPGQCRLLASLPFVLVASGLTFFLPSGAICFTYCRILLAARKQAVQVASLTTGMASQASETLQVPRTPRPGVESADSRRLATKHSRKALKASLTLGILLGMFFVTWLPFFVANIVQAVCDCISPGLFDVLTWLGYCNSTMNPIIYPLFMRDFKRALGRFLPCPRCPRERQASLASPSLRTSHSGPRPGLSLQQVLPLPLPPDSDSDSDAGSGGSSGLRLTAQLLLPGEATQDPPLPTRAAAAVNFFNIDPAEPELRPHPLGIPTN

Take `COc1ccc(C2(C)C(=O)c3c(N4CCNCC4)cc(Cl)cc3N(Cc3ccc(-c4ccccc4)cc3)C2=O)cc1` (centres unmarked) [Example 41, 1-Biphenyl-4-ylmethyl-7-chloro-3-(4-methoxy-phenyl)-3-methyl-5-piperazin-1-yl-1H-quinoline-2,4-dione]: the melting point – broadly, the temperature, or range, at which the solid turns liquid – was 142 to 144 °C. The IC50 (as a rule, the concentration that gives 50% inhibition) in [1] (setting [10]) is 351 nM. Further, the IC50 in [1] (setting [11]) was 15.5 nM. Further, the IC50 in data set [2] is 7010 nM. Further, in data set [3], the IC50 is 7810 nM. For the same compound, in data set [4], the IC50 was 8470 nM. Also, the IC50 in data set [5] turned out to be 8090 nM. Also, in data set [6], the IC50 came out at 6000 nM. In addition, in data set [7], the IC50 was found to be 7680 nM. Besides, the concentration for half-maximal inhibition (IC50) in data set [8] is 9000 nM. For the same compound, the IC50 in [9] came out at 9110 nM.

`COc1ccc(C2(C)C(=O)c3c(N4CCNCC4)cc(Cl)cc3N(CC3CCCCC3)C2=O)cc1` (centres unmarked) [Example 48, 7-Chloro-1-cyclohexylmethyl-3-(4-methoxy-phenyl)-3-methyl-5-piperazin-1-yl-1H-quinoline-2,4-dione]: the melting point is 127 to 128 °C. For the same compound, in data set [1] (setting [10]), the IC50 amounted to 251 nM. Also, the IC50 in data set [1] (setting [11]) was 16 nM. Moreover, the IC50 in data set [2] is 8520 nM. Also, the IC50 in [3] was 7540 nM. The IC50 in data set [4] is 5910 nM. The IC50 in data set [5] amounted to 8660 nM. For the same compound, the IC50 in data set [6] was 7650 nM. Also, the half-maximal inhibitory concentration (IC50) in data set [7] stood at 7510 nM. Moreover, the IC50 in data set [8] amounted to 8990 nM. In addition, the IC50 in data set [9] amounted to 9010 nM.

`CCN1C(=O)C(C)(c2ccc(OC)cc2)C(=O)c2c(N3CCNCC3)cc(Cl)cc21` (centres unmarked) [Example 46, 7-Chloro-1-ethyl-3-(4-methoxy-phenyl)-3-methyl-5-piperazin-1-yl-1H-quinoline-2,4-dione]: the melting point was 127 to 129 °C. Besides, the IC50 in [1] (setting [10]) worked out at 49.1 nM. For the same compound, the IC50 in data set [1] (setting [11]) came out at 15.8 nM. Besides, the IC50 in [2] amounted to 7950 nM. Moreover, in [3], the IC50 worked out at 6700 nM. In addition, the concentration for half-maximal inhibition (IC50) in data set [4] is 6360 nM. Besides, in data set [5], the IC50 came to 9110 nM. The IC50 in data set [6] is 7890 nM. For the same compound, the IC50 in data set [7] was 8570 nM. Moreover, the IC50 in data set [8] is 9410 nM. Moreover, the IC50 in data set [9] amounted to 9570 nM.

With `CC1(c2ccc(O)cc2)C(=O)c2c(N3CCNCC3)cc(Cl)cc2N(Cc2ccc(O)cc2)C1=O` (centres unmarked) [Example 32, 7-Chloro-1-(4-hydroxy-benzyl)-3-(4-hydroxy-phenyl)-3-methyl-5-piperazin-1-yl-1H-quinoline-2,4-dione], the melting point is 241 to 242 °C. Moreover, the IC50 in data set [1] (setting [10]) was determined as 1.7 nM. Also, in data set [1] (setting [11]), the IC50 stood at 15.2 nM. Moreover, the “binding affinity at 5-HT6 receptor labeled by [3H]LSD, in words” value in data set [1] (comment on Table 2) is “significant affinities”. The IC50 in data set [2] was determined as 8310 nM. Further, in data set [3], the IC50 was 6580 nM. In addition, the IC50 in data set [4] came to 7450 nM. Besides, in data set [5], the concentration for half-maximal inhibition (IC50) worked out at 7890 nM. For the same compound, the IC50 in data set [6] was found to be 9010 nM. Also, the IC50 in data set [7] was found to be 6960 nM. Besides, the IC50 in data set [8] amounted to 9110 nM. The IC50 in [9] worked out at 9450 nM.

On to `CC1(c2ccc(Cl)cc2)C(=O)c2c(N3CCNCC3)cc(Cl)cc2N(Cc2ccccc2)C1=O` (centres unmarked) [Example 19, 1-Benzyl-7-chloro-3-(4-chloro-phenyl)-3-methyl-5-piperazin-1-yl-1H-quinoline-2,4-dione], for which the melting point fell in the range of 135 to 136 °C. The IC50 in data set [1] (setting [10]) worked out at 2.3 nM. Also, in [1] (setting [11]), the IC50 was 15.3 nM. Further, in data set [2], the IC50 is 7570 nM. Besides, the IC50 in data set [3] turned out to be 6550 nM. Also, the IC50 in [4] was 9100 nM. Moreover, the IC50 in data set [5] is 6910 nM. Besides, the 50% inhibitory concentration (IC50) in [6] came to 7040 nM. The IC50 in [7] came to 8450 nM. In data set [8], the IC50 was found to be 9140 nM. In addition, the IC50 in data set [9] amounted to 8090 nM.

Source of the values: patent US20080275058A1, “N-Substituted-1H-Quinoline-2,4-Diones, Preparation Method Thereof, And Pharmaceutical Composition Containing The Same” (KOREA RESEARCH INSTITUTE OF CHEMICAL TECHNOLOGY, priority 2005, published 2008).
